Data from patent US6342508B1, “N-hydroxy-2-(Alkyl,Aryl or Heteroaryl sulfanyl, sulfinyl or sulfonyl) 3-substituted alkyl, aryl or heteroarylamides as matrix metalloproteinase inhibitors” (American Cyanamid Company, priority 1997, dated 2002).

What was measured:
Type in all cases: biochemical
MMP 9 = molecular target: T1, MMP 9 (Homo sapiens, UniProt P14780); test: In Vitro Gelatinase Assay (human neutrophil gelatinase B, thiopeptide substrate/DTNB); conditions: read-out: MMP 9 IC 50
T1 construct: from tissue; host or cells: human neutrophils
Method: The assay is based on the cleavage of the thiopeptide substrate ((Ac-Pro-Leu-Gly(2 Mercapto-4 methyl-pentanoyl)-Leu-Gly-OEt), Bachem Bioscience) by the enzyme, gelatinase, releasing the substrate product which reacts colorimetrically with DTNB ((5,5′-dithio-bis(2-nitro-benzoic acid)). The enzyne activity is measured by the rate of the color increase. The thiopeptide substrate is made up fresh as a 20 mM stock in 100% DMSO and the DTNB is dissolved in 100% DMSO as a 100 mM stock and stored in dark at room temperature. Both the substrate and DTNB are diluted together to 1 mM with substrate buffer (50 mM HEPES pH 7.5, 5 mM CaCl2) before use.
The increase in OD405 is plotted and the slope of the line is calculated which represents the reaction rate.
The mean (x±sem) of the control rate is calculated and compared for statistical significance (p<0.05) with drug-treated rates using Dunnett's multiple comparison test.

MMP 13 = MMP 13 (Homo sapiens, UniProt P45452); test: MMP 13 inhibition (standard/manual test); conditions: read-out: MMP 13 IC 50
TACE = molecular target: T2, TACE (Homo sapiens, UniProt P78536); test: Procedure for Measuring TACE Inhibition (fluorescent peptidyl substrate); conditions: read-out: TACE IC 50
T2 construct: purchased Immunex

MMP 1 = molecular target: T3, MMP 1 (Homo sapiens, UniProt P03956); test: In Vitro Collagenase Assay (human recombinant fibroblast collagenase, fluorogenic peptide substrate); conditions: read-out: MMP 1 IC 50
T3 construct: human recombinant fibroblast collagenase (truncated mw=18,828, WAR, Radnor)
T3 sequence (P03956 100-269 limits assumed): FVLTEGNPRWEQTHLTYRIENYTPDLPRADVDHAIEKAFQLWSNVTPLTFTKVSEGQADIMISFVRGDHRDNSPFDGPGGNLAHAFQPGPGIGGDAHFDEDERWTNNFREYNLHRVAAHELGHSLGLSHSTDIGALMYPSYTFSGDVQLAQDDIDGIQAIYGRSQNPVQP
Method: The assay is based on the cleavage of a peptide substrate ((Dnp-Pro-Cha-Gly-Cys(Me)-His-Ala-Lys(NMa)-NH2), Peptide International Inc.) by collagenase releasing the fluorescent NMa group which is quantitated on the fluorometer. Dnp quenches the NMa fluorescence in the intact substrate. […] Substrate is dissolved in methanol and stored frozen in 1 mM aliquots. […] For the assay, substrate is dissolved in HCBC buffer to a final concentration of 10 μM and collagenase to a final concentration of 5 nM. Compounds are dissolved in methanol, DMSO, or HCBC. The methanol and DMSO are diluted in HCBC to <1.0%. Compounds are added to the 96 well plate containing enzyme and the reaction is started by the addition of substrate.
The slope of the line is calculated and represents the reaction rate.
The mean (x±sem) of the control rate is calculated and compared for statistical significance (p<0.05) with drug-related rates using Dunnett's multiple comparison test.

T2 sequence (P78536 215-824): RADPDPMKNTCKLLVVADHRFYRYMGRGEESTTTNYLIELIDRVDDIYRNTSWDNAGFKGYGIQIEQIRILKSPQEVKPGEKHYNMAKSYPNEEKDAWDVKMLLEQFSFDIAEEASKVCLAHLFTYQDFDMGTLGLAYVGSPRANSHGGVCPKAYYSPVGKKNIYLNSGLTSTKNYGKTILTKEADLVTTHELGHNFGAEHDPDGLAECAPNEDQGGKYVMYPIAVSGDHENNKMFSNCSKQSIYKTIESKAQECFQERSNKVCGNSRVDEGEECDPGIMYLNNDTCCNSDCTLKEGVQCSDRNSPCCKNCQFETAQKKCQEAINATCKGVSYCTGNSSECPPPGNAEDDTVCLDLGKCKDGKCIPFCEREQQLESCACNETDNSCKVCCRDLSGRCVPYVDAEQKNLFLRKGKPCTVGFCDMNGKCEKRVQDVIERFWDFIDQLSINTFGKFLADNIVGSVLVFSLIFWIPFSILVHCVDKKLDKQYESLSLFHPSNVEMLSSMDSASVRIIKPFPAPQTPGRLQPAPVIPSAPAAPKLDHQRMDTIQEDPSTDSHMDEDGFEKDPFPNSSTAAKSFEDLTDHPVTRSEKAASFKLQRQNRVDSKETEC
T1 sequence (P14780 94-707): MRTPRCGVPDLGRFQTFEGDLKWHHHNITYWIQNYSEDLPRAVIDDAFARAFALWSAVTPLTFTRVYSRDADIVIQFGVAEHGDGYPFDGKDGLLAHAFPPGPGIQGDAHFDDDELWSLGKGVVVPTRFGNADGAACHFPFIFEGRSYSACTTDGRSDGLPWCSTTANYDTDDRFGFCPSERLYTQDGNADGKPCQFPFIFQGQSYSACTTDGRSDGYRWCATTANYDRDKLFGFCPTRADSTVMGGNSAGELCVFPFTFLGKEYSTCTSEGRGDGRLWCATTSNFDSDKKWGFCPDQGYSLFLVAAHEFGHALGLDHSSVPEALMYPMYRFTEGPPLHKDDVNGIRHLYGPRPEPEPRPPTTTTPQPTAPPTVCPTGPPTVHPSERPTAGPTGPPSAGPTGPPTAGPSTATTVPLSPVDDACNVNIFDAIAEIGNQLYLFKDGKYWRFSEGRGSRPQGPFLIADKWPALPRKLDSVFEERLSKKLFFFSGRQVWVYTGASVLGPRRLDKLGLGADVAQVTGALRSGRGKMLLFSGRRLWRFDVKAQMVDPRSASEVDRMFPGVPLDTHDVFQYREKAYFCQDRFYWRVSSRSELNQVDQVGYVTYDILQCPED

SMILES	IC50 (MMP 9)	IC50 (MMP 13)	IC50 (TACE)	IC50 (MMP 1)
CCCCC[C@H](C(=O)NO)[S@+]([O-])c1ccc(OC)cc1 (relative stereo) [Example 81a, 2R*-(4-methoxyphenyl-S*-sulfinyl)-heptanoic acid hydroxyamide]	231 nM	43.9 nM	27.1 nM	2040 nM
COc1ccc(S(=O)(=O)C(C)(CC=C(C)C)C(=O)NO)cc1 (centres unmarked) [Example 13, 2-(4-Methoxy-benzenesulfonyl)-2-dimethyl-hex-4-enoic acid hydroxyamide]	11 nM	14 nM	626 nM	239 nM
